Reference: ChEMBL document CHEMBL1201862, “PubChem BioAssay data set” (2004)
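Results reflect a 48-hour exposure of cells in 96-well plates to compound at five concentrations. GI50 is the concentration that inhibits growth by half.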 The source made the active and inactive calls. Rule as the data show it: active = GI50 up to about 1.1 µM and inactive = higher.

Key:
Test in all cases: NCI tumour cell line growth inhibition, 48 h
786-0 = tested on: 786-0
Malme-3M = tested on: Malme-3M
SF-539 = tested on: SF-539
OVCAR-5 = tested on: OVCAR-5
LOX IMVI = tested on: LOX IMVI
U-251 = tested on: U-251
HCT-15 = tested on: HCT-15
OVCAR-4 = tested on: OVCAR-4
UO-31 = tested on: UO-31
ACHN = tested on: ACHN
RXF 393 = tested on: RXF 393
M14 = tested on: M14
SK-MEL-2 = tested on: SK-MEL-2
MOLT-4 = tested on: MOLT-4
HCC 2998 = tested on: HCC 2998
SK-MEL-5 = tested on: SK-MEL-5
HL-60 = tested on: HL-60

| Structure (SMILES) | GI50 (786-0) | GI50 (Malme-3M) | GI50 (SF-539) | GI50 (OVCAR-5) | GI50 (LOX IMVI) | GI50 (U-251) | GI50 (HCT-15) [µM] | GI50 (OVCAR-4) | GI50 (UO-31) | GI50 (ACHN) | GI50 (RXF 393) | GI50 (M14) | GI50 (SK-MEL-2) | GI50 (MOLT-4) | GI50 (HCC 2998) | GI50 (SK-MEL-5) | GI50 (HL-60) |
| --- | --- | --- | --- | --- | --- | --- | --- | --- | --- | --- | --- | --- | --- | --- | --- | --- | --- |
| Cc1n[nH]c(=S)n(C)c1=S | > 100 µM (inactive) | > 100 µM (inactive) | > 100 µM (inactive) | > 100 µM (inactive) | > 100 µM (inactive) | > 100 µM (inactive) | > 100 | > 100 µM (inactive) | > 100 µM (inactive) | > 100 µM (inactive) | > 100 µM (inactive) | > 100 µM (inactive) | > 100 µM (inactive) | > 100 µM (inactive) | – | – | – |
| N#Cc1c(C[n+]2ccccc2)c2ccccc2oc1=O | > 100 µM (inactive) | > 100 µM (inactive) | > 100 µM (inactive) | > 100 µM (inactive) | > 100 µM (inactive) | > 100 µM (inactive) | > 100 | 22.7 µM (inactive) | > 100 µM (inactive) | > 100 µM (inactive) | – | > 100 µM (inactive) | > 100 µM (inactive) | > 100 µM (inactive) | > 100 µM (inactive) | > 100 µM (inactive) | – |
| Nc1ccc(C(=O)N/C(=C\c2ccc3c(c2)OCO3)c2nc3ccccc3s2)cc1 | 11.6 µM (inactive) | > 10 µM (inactive) | 17.6 µM (inactive) | 22 µM (inactive) | – | 13.1 µM (inactive) | 11.3 | 12.2 µM (inactive) | 15.6 µM (inactive) | 14.2 µM (inactive) | 14.8 µM (inactive) | 11 µM (inactive) | 14.8 µM (inactive) | 2.79 µM (inactive) | 14.8 µM (inactive) | 13.7 µM (inactive) | – |
| CCOC(=O)C(=O)Nc1c(C)cccc1C | > 100 µM (inactive) | > 100 µM (inactive) | > 100 µM (inactive) | > 100 µM (inactive) | > 100 µM (inactive) | > 100 µM (inactive) | > 100 | > 100 µM (inactive) | > 100 µM (inactive) | > 100 µM (inactive) | > 100 µM (inactive) | > 100 µM (inactive) | > 100 µM (inactive) | – | > 100 µM (inactive) | – | – |
| FC(F)(F)c1ccc(C2SCc3nc4ccccc4n32)cc1 (stereo not drawn) | > 100 µM (inactive) | > 100 µM (inactive) | > 100 µM (inactive) | 15.5 µM (inactive) | – | > 100 µM (inactive) | – | – | > 100 µM (inactive) | 39.2 µM (inactive) | 97.5 µM (inactive) | – | > 100 µM (inactive) | 12.1 µM (inactive) | > 100 µM (inactive) | 11.5 µM (inactive) | 3.13 µM (inactive) |
| CN(C)C(=S)/N=c1\ssc(=S)n1Cc1ccncc1 | 21.7 µM (inactive) | 16.3 µM (inactive) | 21.2 µM (inactive) | 40.8 µM (inactive) | 19.8 µM (inactive) | 14.7 µM (inactive) | 17.5 | 20 µM (inactive) | 15.5 µM (inactive) | 29.8 µM (inactive) | 25.5 µM (inactive) | 20.6 µM (inactive) | 17.2 µM (inactive) | 14 µM (inactive) | 21.1 µM (inactive) | 4.78 µM (inactive) | – |
| Cc1cc2nc3c(C(OC4OC(CO)C(O)C(O)C4O)C(O)CO)nn(-c4ccc(F)cc4)c3nc2cc1C (stereo not drawn) | > 100 µM (inactive) | > 100 µM (inactive) | > 100 µM (inactive) | > 100 µM (inactive) | > 100 µM (inactive) | > 100 µM (inactive) | > 100 | > 100 µM (inactive) | > 100 µM (inactive) | > 100 µM (inactive) | > 100 µM (inactive) | > 100 µM (inactive) | – | > 100 µM (inactive) | > 100 µM (inactive) | – | – |
| CCOc1ccc2c(c1)[n+]([O-])c(-c1ccc(Cl)cc1)c(N)[n+]2[O-] | > 100 µM (inactive) | > 100 µM (inactive) | > 100 µM (inactive) | > 100 µM (inactive) | – | > 100 µM (inactive) | > 100 | > 100 µM (inactive) | 67.1 µM (inactive) | > 100 µM (inactive) | – | > 100 µM (inactive) | > 100 µM (inactive) | 44.3 µM (inactive) | – | > 100 µM (inactive) | 44 µM (inactive) |
| NC1=NN(c2ccccc2)C(=O)C1/C(=N\NC(=O)c1cc2ccccc2cc1O)C(=O)Nc1ccc(Cl)cc1 (stereo not drawn) | 20.2 µM (inactive) | 30.8 µM (inactive) | 23.9 µM (inactive) | 31.4 µM (inactive) | – | 31.5 µM (inactive) | 10.5 | 18.5 µM (inactive) | 21.8 µM (inactive) | 26 µM (inactive) | – | 20.7 µM (inactive) | 23.2 µM (inactive) | 6.78 µM (inactive) | 28.9 µM (inactive) | 24.7 µM (inactive) | 3.57 µM (inactive) |
| O=[N+]([O-])c1ccc2nc(/C(=N/Nc3ccccc3)C(O)c3ccc(C(O)/C(=N\Nc4ccccc4)c4nc5ccc([N+](=O)[O-])cc5nc4O)cc3)cnc2c1 (stereo not drawn) | > 100 µM (inactive) | > 100 µM (inactive) | 55.1 µM (inactive) | 31.4 µM (inactive) | – | – | – | > 100 µM (inactive) | 23 µM (inactive) | 18 µM (inactive) | > 100 µM (inactive) | 40.3 µM (inactive) | 43.8 µM (inactive) | 75.3 µM (inactive) | 29.1 µM (inactive) | 24.8 µM (inactive) | 19.3 µM (inactive) |
| CCCCc1c2c([n+]([O-])c3c1CCCC3)CCCC2 | > 100 µM (inactive) | > 100 µM (inactive) | > 100 µM (inactive) | – | > 100 µM (inactive) | > 100 µM (inactive) | 21.6 | – | 61.1 µM (inactive) | 5.12 µM (inactive) | – | > 10 µM (inactive) | – | 6.59 µM (inactive) | > 100 µM (inactive) | 28.4 µM (inactive) | 38.1 µM (inactive) |
| CN(C)CCC(/C=C/c1ccccc1)=N\Nc1ccc(Cl)cc1Cl | 12.9 µM (inactive) | 18.5 µM (inactive) | 15.2 µM (inactive) | 15.5 µM (inactive) | – | 11.6 µM (inactive) | 11.9 | 14.7 µM (inactive) | 1.73 µM (inactive) | 12.7 µM (inactive) | 8.77 µM (inactive) | 13.7 µM (inactive) | 13.3 µM (inactive) | 10.9 µM (inactive) | – | 13.4 µM (inactive) | 2.29 µM (inactive) |
| CC1=C(c2nc3ccccc3s2)C(=O)OC1(C)C | > 100 µM (inactive) | > 100 µM (inactive) | > 100 µM (inactive) | > 100 µM (inactive) | > 100 µM (inactive) | > 100 µM (inactive) | > 100 | > 100 µM (inactive) | > 100 µM (inactive) | > 100 µM (inactive) | – | > 100 µM (inactive) | > 100 µM (inactive) | > 100 µM (inactive) | > 100 µM (inactive) | > 100 µM (inactive) | – |
| CC1(C)C(=O)C(=Cc2ccco2)C1=O | > 100 µM (inactive) | > 100 µM (inactive) | > 100 µM (inactive) | > 100 µM (inactive) | > 100 µM (inactive) | > 100 µM (inactive) | > 100 | > 100 µM (inactive) | > 100 µM (inactive) | > 100 µM (inactive) | – | > 100 µM (inactive) | > 100 µM (inactive) | > 100 µM (inactive) | > 100 µM (inactive) | > 100 µM (inactive) | > 100 µM (inactive) |
